Tests used:
[1] = target: T1, A3 adenosine receptor (hA3AR) (Homo sapiens, UniProt P0DMS8); assay: Radioligand binding affinity, adherent HEK293 cells stably transfected with hAR cDNA; conditions: normalized to NECA 10 μM
T1 construct: expressed in transfected cells; host or cells: HEK293 (adherent, stably transfected)
T1 sequence (P0DMS8 1-318): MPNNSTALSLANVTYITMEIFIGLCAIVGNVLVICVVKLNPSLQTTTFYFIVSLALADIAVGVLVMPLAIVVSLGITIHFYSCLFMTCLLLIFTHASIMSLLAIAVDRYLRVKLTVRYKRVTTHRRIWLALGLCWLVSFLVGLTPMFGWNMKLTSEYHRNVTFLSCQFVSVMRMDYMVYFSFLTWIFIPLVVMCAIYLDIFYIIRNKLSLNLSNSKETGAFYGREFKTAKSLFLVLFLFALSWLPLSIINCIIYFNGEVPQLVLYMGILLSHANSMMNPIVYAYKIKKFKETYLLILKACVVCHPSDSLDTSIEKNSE
Experimental: (§1) The binding affinity of LJ-4378 and derivatives thereof to A2AAR and A3AR is as shown in the following [Table 1]. All binding affinity experiments were performed using adherent HEK293 cells stably transfected with cDNAs encoding appropriate hAR bonds, and were performed using 1 nM [3H]17, 10 nM [3H]18, or 0.2 nM [3H]16 as radioligands for A2A and A3AR, respectively. Values were normalized to a non-specific binder 5′-N-ethylcarboxamidoadenosine (NECA, 10 μM).

[2] = target: T2, A2A adenosine receptor (hA2AR) (Homo sapiens, UniProt P29274); assay: as above; conditions: normalized to NECA 10 μM
T2 construct: expressed in transfected cells; host or cells: HEK293 (adherent, stably transfected)
Experimental: as §1

[3] = test system: brown adipocytes; assay: Immunoblot of mitochondrial proteins and UCP1 in brown adipocytes; assay type: cell-based, mouse; conditions: 0.1 μM, 24 hours, FIG. 4D
Experimental: (§2) Adipocyte precursor cells capable of differentiating into brown adipocytes were isolated from mouse brown adipose tissue. Cells were cultured in Dulbecco's modified Eagle's medium (Welgene, LM001-07) containing 10% fetal bovine serum (FBS, Gibco, 16000044) and 1% Penicillin Streptomycin (Welgene, LS202-02) at 37° C. in a humidified atmosphere with 5% CO2. When the cells reached about 100% confluency, the cells were exposed to a differentiation medium supplemented with 2.5 mM isobutyl methylxanthine (IBMX, Cayman, I5879), 0.125 mM indomethacin (Cayman, 70270), 1 μM dexamethasone (Cayman), 1 μg/mL insulin (Sigma, I9278), and 1 nM triiodothyronine (T3, Cayman, 6028) for 3 days for adipogenesis. Then, the cells were maintained in a growth medium containing 1 μg/mL insulin and 1 nM triiodothyronine (T3) for 3 days.
(§3) In the case of Western blots, the primary antibodies used for Western blots are summarized in [Table 2] above. An anti-rabbit horseradish peroxidase antibody (1:3000, Thermo Fisher, 31460) and an anti-mouse horseradish peroxidase antibody (1:3000, Jackson, 115-035-174) were used as secondary antibodies. All antibodies were diluted in a blocking buffer (5% skimmed milk or 5% bovine serum albumin in TBST). Western blot images were acquired using a Fusion Solo chemiluminescence imaging system (Vilber Lourmat) and analyzed with Evolution Capt software (version 17.03). NIH ImageJ software was used for quantification.

[4] = test system: brown adipocytes; assay: Lipolysis: glycerol and free fatty acid levels in conditioned medium; assay type: cell-based, mouse; conditions: 0.1 μM, 24 hours
Experimental: as §2
The free fatty acid (FFA) levels in the medium were measured using an NEFA reagent (WAKO, 436-91693) according to the manufacturer's product protocol.
Glycerol and free fatty acid (FFA) levels in a medium were measured using a glycerol reagent (Sigma Aldrich, F6428) and a NEFA reagent (WAKO, 436-91693) according to the manufacturer's product protocols.

[5] = test system: CIDEA reporter mice; assay: qPCR of brown adipocyte markers in brown adipose tissue; assay type: in vivo, mouse; conditions: BAT, 1 mg kg-1/day, 10 days
Experimental: Mice were treated with vehicle (CTL), LJ-4378 (LJ, 1 mg kg-1/day), […] (CGS21680, 1 mg kg-1/day), or A3 antagonist (LJ-4433, 1 mg kg-1/day) for 10 days. (A-B) Representative bioluminescence in dorsal and lateral positions (n=3, mean±SEM, ** p<0.01, **** p<0.0001). (C) Representative ex vivo fluorescence image and quantification of fluorescence intensity of BAT and iWAT (n=3, mean±SEM, ** p<0.01, **** p<0.0001). (D) qPCR analysis of UCP1 and CIDEAM RNA expression levels of brown adipose tissue (BAT) (n=3, mean±SEM, * p<0.05, ** p<0.01, *** p<0.001).
qPCR analysis was performed to investigate the adenosine receptor expression levels in brown adipocytes differentiated from immortalized brown adipocyte precursor cells. Primers used for the qPCR analysis are listed in the following [Table 3].

[6] = test system: brown adipocytes; assay: Immunoblot of PKA downstream proteins (P-HSL, P-CREB) in brown adipocytes; assay type: cell-based, mouse; conditions: 0.1 μM, 24 hours, FIG. 3D
Experimental: as §2, §3

T2 sequence (P29274 whole entry): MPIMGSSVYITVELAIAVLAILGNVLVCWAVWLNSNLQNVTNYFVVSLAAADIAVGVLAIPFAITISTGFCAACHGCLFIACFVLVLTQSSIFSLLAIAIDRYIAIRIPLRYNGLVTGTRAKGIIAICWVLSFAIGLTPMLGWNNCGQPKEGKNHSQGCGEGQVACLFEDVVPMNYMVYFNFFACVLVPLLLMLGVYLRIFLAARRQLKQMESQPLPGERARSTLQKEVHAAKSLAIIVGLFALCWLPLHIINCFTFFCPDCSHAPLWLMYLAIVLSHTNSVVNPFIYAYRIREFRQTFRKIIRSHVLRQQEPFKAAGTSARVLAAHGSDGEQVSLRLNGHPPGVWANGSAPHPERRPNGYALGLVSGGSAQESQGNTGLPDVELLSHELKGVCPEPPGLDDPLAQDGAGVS

Row | Compound | Ki [1] [nM] | Ki [2] [nM] | also measured
1 | CCNC(=O)[C@H]1O[C@@H](n2cnc3c(N)nc(NCCc4ccc(CCC(=O)O)cc4)nc32)[C@H](O)[C@@H]1O [CGS21680, reference compound] |  |  | COXIV, fold increase [3]: increased; MCAD, fold increase [3]: increased; UCP1, fold increase [3]: increased; glycerol level in conditioned medium, fold change ([4]; FIG. 3B): 1.51±0.08 fold; FFA level in conditioned medium, fold change ([4]; FIG. 3C): 1.29±0.09 fold; Cidea mRNA level, fold increase [5]: 1.29±0.12 fold; Ucp1 mRNA level, fold increase [5]: 1.72±0.17 fold; P-CREB, fold increase [6]: 2.00±0.11 fold; P-HSL, fold increase [6]: 1.54±0.05 fold
2 | CC#Cc1nc(NCc2cccc(I)c2)c2ncn([C@@H]3SC[C@@H](O)[C@H]3O)c2n1 [Compound 9e, (2R,3R,4S)-2-(6-((3-iodobenzyl)amino)-2-(prop-1-yn-1-yl)-9H-purin-9-yl)tetrahydro thiophene-3,4-diol] | 20.1 | 121 | 
3 | CCC#Cc1nc(NCc2cccc(I)c2)c2ncn([C@@H]3SC[C@@H](O)[C@H]3O)c2n1 [Compound 9j, (2R,3R,4S)-2-(2-(but-1-yn-1-yl)-6-((3-iodobenzyl)amino)-9H-purin-9-yl)tetrahydrothiophene-3,4-diol] | 8.6 | 58 | 
4 | CCC#Cc1nc(NCc2cccc(Br)c2)c2ncn([C@@H]3SC[C@@H](O)[C@H]3O)c2n1 [Compound 9i, (2R,3R,4S)-2-(6-((3-bromobenzyl)amino)-2-(but-1-yn-1-yl)-9H-purin-9-yl)tetrahydrothiophene-3,4-diol] | 0.293 | 113 | 
5 | CCC#Cc1nc(NCc2cccc(F)c2)c2ncn([C@@H]3SC[C@@H](O)[C@H]3O)c2n1 [Compound 9g, (2R,3R,4S)-2-(2-(but-1-yn-1-yl)-6-((3-fluorobenzyl)amino)-9H-purin-9-yl)tetrahydrothiophene-3,4-diol] | 9.5 | 914 | 
6 | CC#Cc1nc(NCc2cccc(Br)c2)c2ncn([C@@H]3SC[C@@H](O)[C@H]3O)c2n1 [Compound 9d, (2R,3R,4S)-2-(6-((3-bromobenzyl)amino)-2-(prop-1-yn-1-yl)-9H-purin-9-yl)tetrahydro thiophene-3,4-diol] | 11.1 | 469 | 
7 | CCC#Cc1nc(NCc2cccc(Cl)c2)c2ncn([C@@H]3SC[C@@H](O)[C@H]3O)c2n1 [Compound 9h, (2R,3R,4S)-2-(2-(but-1-yn-1-yl)-6-((3-chlorobenzyl)amino)-9H-purin-9-yl)tetrahydrothiophene-3,4-diol] | 3.8 | 239 | 

More lines, main results first:

Row | Ki [1] [nM] | Ki [2] [nM] | Compound | also measured
8 | 67.3 | 23.9 | CCC#Cc1nc(N)c2ncn([C@@H]3SC[C@@H](O)[C@H]3O)c2n1 [Compound 9f, (2R,3R,4S)-2-(6-amino-2-(but-1-yn-1-yl)-9H-purin-9-yl)tetrahydrothiophene-3,4-diol] | 
9 | 30.5 | 772 | CC#Cc1nc(NCc2cccc(F)c2)c2ncn([C@@H]3SC[C@@H](O)[C@H]3O)c2n1 [Compound 9b, (2R,3R,4S)-2-(6-((3-fluorobenzyl)amino)-2-(prop-1-yn-1-yl)-9H-purin-9-yl)tetrahydro thiophene-3,4-diol] | 
10 | 64.7 | 117 | CC#Cc1nc(N)c2ncn([C@@H]3SC[C@@H](O)[C@H]3O)c2n1 [Compound 9a, (2R,3R,4S)-2-(6-amino-2-(prop-1-yn-1-yl)-9H-purin-9-yl)tetrahydrothiophene-3,4-diol] | 
11 | 1.5 | 221 | CC#Cc1nc(NCc2cccc(Cl)c2)c2ncn([C@@H]3SC[C@@H](O)[C@H]3O)c2n1 [Compound 9c, (2R,3R,4S)-2-(6-((3-chlorobenzyl)amino)-2-(prop-1-yn-1-yl)-9H-purin-9-yl)tetrahydro thiophene-3,4-diol] | 

From patent US20260027121A1, “LIGAND ACTING ON ADENOSINE RECEPTORS AND COMPOSITION COMPRISING SAME FOR PREVENTION, ALLEVIATION, OR TREATMENT OF OBESITYS” (FUTURE MEDICINE CO., LTD., priority 2022, published 2026)
